Test results as given in US20250326771A1, “PIPERAZINE DERIVATIVES USEFUL IN HIV THERAPY” (VIIV HEALTHCARE COMPANY, priority 2022, published 2025).
Where two headings read alike, the source gives them in different places.

Assays:
[1] = tested on: Jurkat HIV-luciferase clones; conditions: HIV latency reversal studies; cited from earlier work
cell-associated HIV RNA = conditions: primary cells / resting CD4+ T cells; cited from earlier work
p100/p52 = conditions: cited from earlier work
cIAP1-BIR3 = cIAP1-BIR3 (Homo sapiens (Human), UniProt Q13490); test: BIR binding assay (FRET competition), cIAP1 BIR3; conditions: for cIAP1 BIR3 vs BIR2 separation window: fold separation (FS) for cIAP1
Summary of the method: (§1)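 His-tagged domains (50 nM cIAP1-BIR3, 325 nM cIAP2-BIR2, 325 nM cIAP1-BIR2, 100 nM XIAP-BIR3) compete with compounds for a 200 nM AlexaFluor647-labelled SMAC/DIABLO peptide in HEPES buffer, pH 7.4, for 60 min. Then 2 nM Eu-W1024 is added for 30 min. The 615/665 nm ratio is fit by four-parameter fit to give IC50.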

cIAP2-BIR2 = cIAP2-BIR2 (Homo sapiens (Human), UniProt Q13489); test: BIR binding assay (FRET competition), cIAP2 BIR2
Summary of the method: as §1

cIAP2-BIR3 = cIAP2-BIR3 (Homo sapiens (Human), UniProt Q13489); test: BIR binding assay (FRET competition), cIAP2 BIR3; conditions: for cIAP2 BIR3 vs BIR2 separation window: fold separation (FS) for cIAP2
[2] = tested on: Jurkat HIV-luciferase clones; test: Jurkat latency reversal assay; assay type: cell-based; conditions: Homo sapiens, 48 h; Jurkat latency reversal assay potency; read-out: Jurkat pEC50 (converted)
Summary of the method: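 Latency reversal was scored as provirus-driven luciferase luminescence in pooled Jurkat HIV-luc clones after 48 h compound exposure at 37° C. EC50 and maximal activation over vehicle were fitted with a four-parameter logistic model.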

XIAP-BIR3 = XIAP-BIR3 (Homo sapiens (Human), UniProt P98170); test: BIR binding assay (FRET competition), XIAP BIR3; conditions: for XIAP BIR3 vs BIR2 separation window: fold separation (FS) for XIAP
Summary of the method: as §1

cIAP1-BIR2 = cIAP1-BIR2 (Homo sapiens (Human), UniProt Q13490); test: BIR binding assay (FRET competition), cIAP1 BIR2
Summary of the method: as §1

XIAP-BIR2 = XIAP-BIR2 (Homo sapiens (Human), UniProt P98170); test: BIR binding assay (FRET competition), XIAP BIR2; conditions: read-out: XIAP BIR2 (pIC50) (converted)
Summary of the method: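 Compounds in a 15-point, 3-fold series competed with an AlexaFluor647 SMAC peptide (AVPIAQKSE, 200 nM) for 200 nM His-tagged XIAP-BIR2 over 60 min in pH 7.4 HEPES/CHAPS/DTT buffer. Eu-W1024 (2 nM) was then added for 30 min. IC50 and pIC50 were derived from the 615 nm/665 nm emission ratio by variable-slope fit.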

XIAP-BIR2, sequence (P98170 124-240): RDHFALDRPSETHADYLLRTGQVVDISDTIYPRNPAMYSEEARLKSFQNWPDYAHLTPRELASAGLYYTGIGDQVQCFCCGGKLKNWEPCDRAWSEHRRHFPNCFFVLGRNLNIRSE
XIAP-BIR3, sequence (P98170 241-356): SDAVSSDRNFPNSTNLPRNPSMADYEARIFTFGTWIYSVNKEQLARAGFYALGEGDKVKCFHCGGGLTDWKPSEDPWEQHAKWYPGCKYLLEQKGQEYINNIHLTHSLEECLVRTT
cIAP1-BIR3, sequence (Q13490 253-363): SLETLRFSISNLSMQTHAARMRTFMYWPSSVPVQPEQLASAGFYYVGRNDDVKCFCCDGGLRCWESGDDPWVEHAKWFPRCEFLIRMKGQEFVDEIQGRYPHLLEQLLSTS
cIAP2-BIR2, sequence (Q13489 158-242): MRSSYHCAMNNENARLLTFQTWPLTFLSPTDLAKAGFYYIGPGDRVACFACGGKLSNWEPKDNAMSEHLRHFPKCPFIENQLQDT
cIAP1-BIR2, sequence (Q13490 173-257): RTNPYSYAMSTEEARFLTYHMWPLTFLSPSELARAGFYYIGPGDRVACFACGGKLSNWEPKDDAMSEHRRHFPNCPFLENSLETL
cIAP2-BIR3, sequence (Q13489 238-349): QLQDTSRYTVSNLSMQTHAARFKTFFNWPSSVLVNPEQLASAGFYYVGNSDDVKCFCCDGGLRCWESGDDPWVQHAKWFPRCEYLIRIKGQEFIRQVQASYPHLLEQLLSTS

| Compound | potency in Jurkat [1] | HIV caRNA induction (cell-associated HIV RNA) | p100-p52 conversion (p100/p52) | IC50 (cIAP1-BIR3) [nM] | cIAP1 BIR3 vs BIR2 separation window (cIAP1-BIR3) | IC50 (cIAP2-BIR2) [nM] | IC50 (cIAP2-BIR3) [nM] | cIAP2 BIR3 vs BIR2 separation window (cIAP2-BIR3) | EC50 [2] [nM] | IC50 (XIAP-BIR3) [nM] | XIAP BIR3 vs BIR2 separation window (XIAP-BIR3) | IC50 (cIAP1-BIR2) [nM] | IC50 (XIAP-BIR2; FRET competition binding) [nM] | IC50 (XIAP-BIR2; FRET competition) [nM] |
| --- | --- | --- | --- | --- | --- | --- | --- | --- | --- | --- | --- | --- | --- | --- |
| CC[C@H](NC(=O)[C@H](C)NC)C(=O)N1C[C@@H](O)C[C@H]1Cc1c(-c2[nH]c3cc(F)ccc3c2C[C@@H]2C[C@H](O)CN2C(=O)[C@H](CC)NC(=O)[C@H](C)NC)[nH]c2cc(F)ccc12 [Birinapant TL32711, Birinapant] | not potent | not potent | not potent | – | – | – | – | – | – | – | – | – | – | – |
| CN[C@@H](C)C(=O)N[C@H](C(=O)N1CCC[C@H]1C(=O)N[C@H]1c2ccccc2C[C@H]1OCC#CC#CCO[C@@H]1Cc2ccccc2[C@@H]1NC(=O)[C@@H]1CCCN1C(=O)[C@@H](NC(=O)[C@H](C)NC)C1CCCCC1)C1CCCCC1 [AZD5582] | – | increase in cell-associated HIV RNA expression | – | – | – | – | – | – | – | – | – | – | – | – |
| C[C@@H]1CN(CC(=O)N2CC(C)(C)c3[nH]c(=O)c(Cc4ccc(F)cc4)cc32)[C@@H](CN2CCN(C(=O)COCCOCC(=O)N3CCN(C[C@H]4CN[C@H](C)CN4CC(=O)N4CC(C)(C)c5[nH]c(=O)c(Cc6ccc(F)cc6)cc54)[C@H](C)C3)C[C@H]2C)CN1 [Example 5, 1,1′-(2,2′-((3R,3′R,6R,6′R)-(((2R,2′R)-(2,2′-(ethane-1,2-diylbis(oxy))bis(acetyl))bis(2-methylpiperazine-4,1-diyl))bis(methylene))bis(3-methylpiperazine-6,1-diyl))bis(acetyl))bis(6-(4-fluorobenzyl)-3,3-dimethyl-1,2,3,4-tetrahydro-5H-pyrrolo[3,2-b]pyridin-5-one)] | – | – | – | 31.6 to 501 | ++ (1,000>FS>100) | 1000 to 3160 | 15.8 to 31.6 | ++ (1,000>FS>100) | 63.1 to 316 | 31.6 to 501 | ++++ (FS>10,000) | 3160 to 10000 | 10000 to 51300 | – |
| C[C@@H]1CN(CC(=O)N2CC(C)(C)c3[nH]c(=O)c(Cc4ccc(F)cc4)cc32)[C@@H](CN2CCO[C@H](C(=O)NCCOCCOCCOCCNC(=O)[C@@H]3CN(C[C@H]4CN[C@H](C)CN4CC(=O)N4CC(C)(C)c5[nH]c(=O)c(Cc6ccc(F)cc6)cc54)CCO3)C2)CN1 [Example 121, (2S,2'S)-N,N′-(((oxybis(ethane-2,1-diyl))bis(oxy))bis(ethane-2,1-diyl))bis(4-(((2R,5R)-1-(2-(6-(4-fluorobenzyl)-3,3-dimethyl-5-oxo-2,3,4,5-tetrahydro-1H-pyrrolo[3,2-b]pyridin-1-yl)-2-oxoethyl)-5-methylpiperazin-2-yl)methyl)morpholine-2-carboxamide)] | – | – | – | 7.94 to 15.8 | +++ (10,000>FS>1,000) | 1000 to 3160 | 7.94 to 15.8 | +++ (10,000>FS>1,000) | 63.1 to 316 | 7.94 to 15.8 | ++++ (FS>10,000) | 1000 to 3160 | 10000 to 51300 | – |
| C[C@@H]1CN(CC(=O)N2CC(C)(C)c3[nH]c(=O)c(Oc4ccc(F)cc4)cc32)[C@@H](CN2CCO[C@H](C(=O)NCc3ccc(CNC(=O)[C@@H]4CN(C[C@H]5CN[C@H](C)CN5CC(=O)N5CC(C)(C)c6[nH]c(=O)c(Oc7ccc(F)cc7)cc65)CCO4)cc3)C2)CN1 [Compound 181, (2S,2′S)-N,N′-(1,4-phenylenebis(methylene)) bis(4-(((2R,5R)-1-(2-(6-(4-fluorophenoxy)-3,3-dimethyl-5-oxo-2,3,4,5-tetrahydro-1H-pyrrolo[3,2-b]pyridin-1-yl)-2-oxoethyl)-5-methylpiperazin-2-yl)methyl)morpholine-2-carboxamide)] | – | – | – | 1.38 to 7.94 | ++++ (FS>10,000) | 3160 to 10000 | 1.38 to 7.94 | ++++ (FS>10,000) | 63.1 to 316 | 1.38 to 7.94 | ++++ (FS>10,000) | 3160 to 10000 | – | 10000 to 51300 |
| C[C@@H]1CN(CC(=O)N2CC(C)(C)c3[nH]c(=O)c(Cc4ccc(F)cc4F)cc32)[C@@H](CN2CCO[C@H](C(=O)NCc3ccc(CNC(=O)[C@@H]4CN(C[C@H]5CN[C@H](C)CN5CC(=O)N5CC(C)(C)c6[nH]c(=O)c(Cc7ccc(F)cc7F)cc65)CCO4)cc3)C2)CN1 [Compound 177, (2S,2′S)-N,N′-(1,4-phenylenebis(methylene)) bis(4-(((2R,5R)-1-(2-(6-(2,4-difluorobenzyl)-3,3-dimethyl-5-oxo-2,3,4,5-tetrahydro-1H-pyrrolo[3,2-b]pyridin-1-yl)-2-oxoethyl)-5-methylpiperazin-2-yl)methyl)morpholine-2-carboxamide)] | – | – | – | 15.8 to 31.6 | +++ (10,000>FS>1,000) | 1000 to 3160 | 7.94 to 15.8 | +++ (10,000>FS>1,000) | 0.49 to 12.6 | 31.6 to 501 | ++++ (FS>10,000) | 1000 to 3160 | – | 10000 to 51300 |
| C[C@@H]1CN(CC(=O)N2CC(C)(C)c3[nH]c(=O)c(Oc4ccc(Br)cc4)cc32)[C@@H](CN2CCO[C@H](C(=O)NCc3ccc(CNC(=O)[C@@H]4CN(C[C@H]5CN[C@H](C)CN5CC(=O)N5CC(C)(C)c6[nH]c(=O)c(Oc7ccc(Br)cc7)cc65)CCO4)cc3)C2)CN1 [Compound 183, (2S,2′S)-N,N′-(1,4-phenylenebis(methylene)) bis(4-(((2R,5R)-1-(2-(6-(4-bromophenoxy)-3,3-dimethyl-5-oxo-2,3,4,5-tetrahydro-1H-pyrrolo[3,2-b]pyridin-1-yl)-2-oxoethyl)-5-methylpiperazin-2-yl)methyl)morpholine-2-carboxamide)] | – | – | – | 1.38 to 7.94 | +++ (10,000>FS>1,000) | 1000 to 3160 | 1.38 to 7.94 | +++ (10,000>FS>1,000) | 63.1 to 316 | 31.6 to 501 | +++ (10,000>FS>1,000) | 1000 to 3160 | – | 10000 to 51300 |
| C[C@@H]1CN(CC(=O)N2CC(C)(C)c3[nH]c(=O)c(Cc4ccc(F)cc4)cc32)[C@@H](CN2CCC(CN(C)C(=O)Cc3cccc(C(=O)N(C)CC4CCN(C[C@H]5CN[C@H](C)CN5CC(=O)N5CC(C)(C)c6[nH]c(=O)c(Cc7ccc(F)cc7)cc65)CC4)c3)CC2)CN1 [Example 98, N-((1-(((2R,5R)-1-(2-(6-(4-fluorobenzyl)-3,3-dimethyl-5-oxo-2,3,4,5-tetrahydro-1H-pyrrolo[3,2-b]pyridin-1-yl)-2-oxoethyl)-5-methylpiperazin-2-yl)methyl)piperidin-4-yl)methyl)-3-(2-(((1-(((2R,5R)-1-(2-(6-(4-fluorobenzyl)-3,3-dimethyl-5-oxo-2,3,4,5-tetrahydro-1H-pyrrolo[3,2-b]pyridin-1-yl)-2-oxoethyl)-5-methylpiperazin-2-yl)methyl)piperidin-4-yl)methyl)(methyl)amino)-2-oxoethyl)-N-methylbenzamide] | – | – | – | 1.38 to 7.94 | +++ (10,000>FS>1,000) | 10000 to 51300 | 1.38 to 7.94 | +++ (10,000>FS>1,000) | 63.1 to 316 | 7.94 to 15.8 | ++++ (FS>10,000) | 1000 to 3160 | 10000 to 51300 | – |
| C[C@@H]1CN(CC(=O)N2CC(C)(C)c3ncc(Cc4ccc(F)cc4)cc32)[C@@H](CN2CCO[C@H](COc3cccc(OC[C@@H]4CN(C[C@H]5CN[C@H](C)CN5CC(=O)N5CC(C)(C)c6ncc(Cc7ccc(F)cc7)cc65)CCO4)c3)C2)CN1 [Compound 145] | – | – | – | 7.94 to 15.8 | +++ (10,000>FS>1,000) | 10000 to 51300 | 7.94 to 15.8 | +++ (10,000>FS>1,000) | 12.6 to 63.1 | 31.6 to 501 | ++++ (FS>10,000) | 3160 to 10000 | – | 10000 to 51300 |
